Ends that are not written are not given here.
What was measured:
Settings in all cases: 24 h
[1] = test system: human peripheral blood mononuclear cells (PBMCs); assay: MTT viability assay, PBMCs; type: cell-based
From the text: Cell Lines: MDA-MB-468, MDA-MB-231, ZR-75-1, MCF7, and T47D were obtained from the Physical Sciences-Oncology Network (PS-ON) Bioresource Core Facility (PBCF) at American Type Culture Collection (ATCC, Manassas, VA, USA). SKBR3 cell line was a kind gift from Dr. Hyungjin Kim at Stony Brook University. ZR-75-1, MCF7, and T47D were maintained in complete RPMI 1640 media. MDA-MB-468, MDA-MB-231, and SKBR3 were maintained in complete DMEM media. Both complete RPMI and DMEM were supplemented with 10% FBS, 1% penicillin-streptomycin, 1 µg/mL Amphotericin B, 1% of l-glutamine, 2 mM sodium pyruvate, and 10 mM HEPES buffer at pH 8. Human Peripheral Blood Mononuclear Cells (PBMCs) were isolated from fresh human blood by Ficoll-Paque PLUS and cultured in complete RPMI 1640 media.
(§1) Viability Assay: Equivalent numbers of cells from each cell line was seeded in 96-well plate and incubated at 37 °C for 24 hours before treatment. The cells were treated with different concentration of peptides and incubated for 24 hours at 37 °C. 20 µl of 5mg/ml of MTT reagent was added to each well and incubated for 4 hours at 37 °C. The supernatant was then removed, followed by addition of 150 µl of MTT solvent, with shaking 15 min at room temperature. Absorbance at 590 nm was then measured through the BioTek Synergy H1 microplate reader.

MCF7 = type: cell-based, human
Description: as §1

SKBR3 = type: cell-based, human
Description: as §1

## GFQDVEAQAATCNHTVMA [B18]
[1]
  cytotoxic effect on quiescent PBMCs: no cytotoxic effect was observed
MCF7
  IC50: 59.8 ± 5.3 µM
SKBR3
  IC50: 11.2 ± 3.4 µM
